# How the values were obtained:
# p53 [1] = type: cell-based; conditions: syncytia, 24 hours; SN50 20 µM, roscovitin 1 µM; Fig. 3B
# Experimental: The frequency of GFP-expressing cells was assessed by cytofluorometry, on a FACS Vantage (Becton Dickinson) equipped with a 100 µm nozzle, allowing for the analysis of relatively large cells.
# (§1) Transfection with pcDNA3.1 vector only, or p38 DN plasmids (gift by Roger Davis), or HPLC-purified anti-sense HIPK2 phosphorothioate oligonucleotides (100 nM) and control were transfected with Lipofectamine (Invitrogen) into HeLa CD4 cells, 24 h before co-culture with HeLa Env cells. Transfection with pcDNA3.1 vector only or a p53-responsive enhanced green fluorescent (GFP) plasmid (kind gift from Klas Wiman) was performed 24 hours before coculture of HeLa CD4 and HeLa Env cells. The frequency of GFP-expressing cells was assessed by cytofluorometry, on a FACS Vantage (Becton Dickinson) equipped with a 100 µm nozzle, allowing for the analysis of relatively large cells.
# Env-elicited syncytia [2] = assay: Karyogamy and cyclin B accumulation in Env-elicited syncytia; type: cell-based; conditions: SN50 20 µM, roscovitin 1 µM; Fig. 3D
# Experimental: Figure 3D. […] Syncytia were treated with various drugs as in B, and the frequency of karyogamic cells was scored.
# (§2) HeLa/U937 cell co-cultures were performed at different ratios (6). U937 or Jurkat cells were cultured with recombinant gp120 protein (500 ng/ml).
# Env-induced syncytia = conditions: reference (5); cited from earlier work
# p53 [3] = assay: Phosphorylation of p53 (p53S46P, p53S15P) in Env-elicited syncytia; type: cell-based; conditions: 36 h coculture, SB203580, SB202190, SB202474 100 nM, LY294002 1 µM, PD98059 5 µM, anti-sense HIPK2 100 nM, Fig. 10
# Experimental: Figures 10A and 10C. […] HeLa Env and HeLa CD4 cells were cocultured for 36h in the presence of the indicated agents followed by the determination of the frequency of p53S46P+ syncytia. Results are means of three independent experiments.
# Figure 10B. […] Syncytia were generated as in figure 10A, after transfection with anti-sense HIPK2 phosphorothioate oligonucleotides (100 nM) or a scrambled control olignonucleotide (Co.), followed by immunofluorescence detection of p53S46P.
# as §1
# Env-elicited syncytia [4] = type: cell-based
# Experimental: as §2
compound,measurement,setting,value
CC[C@H](CO)Nc1nc(NCc2ccccc2)c2ncn(C(C)C)c2n1 [roscovitine],p53-dependent transcription (p53-inducible GFP construct),p53 [1],inhibited
same,emergence of karyogamic syncytia (karyogamy),Env-elicited syncytia [2],inhibiting
same,syncytium-dependent cell death,Env-induced syncytia,blocked
Oc1ccc(-c2nc(-c3ccc(F)cc3)c(-c3ccncc3)[nH]2)cc1 [SB202190],frequency of p53S46P+ syncytia (p53S46P),p53 [3]; 500 mM caffeine,strongly reduced
Cn1c(=O)c2c(ncn2C)n(C)c1=O [caffeine],propensity of syncytia to undergo apoptosis,Env-elicited syncytia [4],did not reduce
same,frequency of p53S46P+ syncytia (p53S46P),p53 [3]; caffeine,no effect
COc1cccc(-c2cc(=O)c3ccccc3o2)c1N [PD98059],frequency of p53S46P+ syncytia (p53S46P),p53 [3]; 500 mM caffeine,failed to affect
CCc1nc(-c2ccc(OC)cc2)[nH]c1-c1ccncc1 [SB202474],frequency of p53S46P+ syncytia (p53S46P),p53 [3]; 500 mM caffeine,not

# Reference: patent publication EP1542016A1, “PUMA, phosphorylated p53 and p38 map kinase as markers for HIV-1-induced apoptosis in circulating T cells of infected patient” (Institut Gustave Roussy, priority 2003, dated 2005)
